Counter-ions that a name gives are not always drawn. Marks after values point to notes of the source that are not given here.
Tests used:
[1] = Mouse formalin test; assay type: in vivo; settings: male ddy mouse, 30 mg/kg subcutaneously 15 min before 1% formalin, mean
Method: A male ddy strain mouse (4 to 5 weeks old) was kept at a temperature of 21 to 25° C. and a humidity of 45 to 65% in a breeding room under the conditions of a constant lighting cycle (light: 12 hours, dark: 12 hours) while allowing the animal to access a feed and water ad libitum, whereby acclimatizing the animal over a period of 1 week or longer. Each 6 to 7 animals were assigned to each group.
After the mouse was acclimatized to an observation cage sufficiently, it was treated with a test compound, and then after 15 minutes 20 μl of 1% formalin solution was given subcutaneously to a hind limb. The test compound was dissolved in a saline, and immediately given to the mouse subcutaneously at the dose of 0.1 ml per 10 g body weight using a 27G needle. A control group received the physiological saline. The animals were returned to their observation cages, and examined for the duration of the aversive responses such as licking or biting the posterior limb using a stopwatch over a period of 30 minutes.
The significance of the difference was analyzed by the one-way layout analysis of variance between the control group and a treatment group followed by Dunnett's multiple comparison.

[2] = target: T1, human nociceptin receptor (Homo sapiens, UniProt P41146); assay: Nociceptin receptor binding test ([3H]-nociceptin); settings: membranes of human nociceptin receptor expressing cell; 0.08 nM [3H]-nociceptin; 25° C., 60 minutes
T1 construct: expressed in transfected cells
T1 sequence (P41146 whole entry): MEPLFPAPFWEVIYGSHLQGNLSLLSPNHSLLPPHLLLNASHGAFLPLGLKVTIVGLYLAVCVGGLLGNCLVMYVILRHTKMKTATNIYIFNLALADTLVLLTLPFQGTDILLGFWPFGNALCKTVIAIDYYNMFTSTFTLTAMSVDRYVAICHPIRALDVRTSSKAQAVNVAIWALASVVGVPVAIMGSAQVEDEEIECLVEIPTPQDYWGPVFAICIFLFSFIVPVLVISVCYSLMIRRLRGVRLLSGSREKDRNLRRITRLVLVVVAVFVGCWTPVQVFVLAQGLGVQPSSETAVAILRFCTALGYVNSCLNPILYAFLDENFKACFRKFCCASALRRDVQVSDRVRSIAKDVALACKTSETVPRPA
Method: Nociceptin Receptor Binding Test
A suspension of cell membrane obtained from a human nociceptin receptor expressing cell was adjusted at a protein concentration of 5 to 10 μg/ml using a Tris-buffer solution [50 mM Tris-HCl (pH 7.8), 5 mM MgCl2, 1 mM EGTA, 0.1% BSA]. The solution was incubated with [^3H]-nociceptin (diluted at the final concentration of 0.08 nM using Tris-buffer) and a test compound at 25° C. for 60 minutes. The membrane was recovered using a cell harvester onto a glass fiber (GF) filter GF/B which had previously been treated with 0.3% polyethyleneimine (PEI), and then washed further 4 times with a washing solution[50 mM Tris-HCl (pH 7.8), 4° C.]. The filter was transferred into a counteing vial. Adequate amount of scintillator was added to the vial and the radioactivity was measured using a liquid scintillation counter. A non-specific binding was regarded as a binding of [^3H]-nociceptin in the presence of 10 μM nociceptin, and a specific binding was regarded as the difference between the total binding and the non-specific binding. Based on the % binding inhibition in the presence of the test compound, an IC50 value was determined, and used together with the Kd value of [^3H]-nociceptin for calculating the Ki value of the test compound.

[3] = target: T2, human μ receptor (Homo sapiens, UniProt P35372); assay: μ receptor binding test ([3H]-diprenorphine); settings: human μ receptor expressing cell membrane preparation; 0.13 nM [3H]-diprenorphine; 25° C., 90 minutes; read-out: μ preceptor Ki
T2 construct: purchased Receptor Biology, Inc
T2 sequence (P35372 whole entry): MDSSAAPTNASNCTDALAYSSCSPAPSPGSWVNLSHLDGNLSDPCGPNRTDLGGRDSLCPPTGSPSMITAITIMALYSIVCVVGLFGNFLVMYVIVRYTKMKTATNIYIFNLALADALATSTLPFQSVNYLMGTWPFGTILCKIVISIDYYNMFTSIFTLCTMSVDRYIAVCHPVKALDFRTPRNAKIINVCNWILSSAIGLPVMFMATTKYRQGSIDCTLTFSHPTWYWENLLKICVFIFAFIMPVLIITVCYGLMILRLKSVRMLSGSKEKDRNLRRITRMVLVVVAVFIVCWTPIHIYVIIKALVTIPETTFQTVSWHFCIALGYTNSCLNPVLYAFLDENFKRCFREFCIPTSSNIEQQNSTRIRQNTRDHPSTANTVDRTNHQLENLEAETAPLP
Method: A nociceptin receptor is a member of an opioid receptor family. An inventive compound was examined for its binding capacity to a μ receptor which is also a member of an opioid receptor family and which is involved in an analgesic effect and a dependency, and compared with the binding capacity to the nociceptin receptor.
A human μ receptor expressing cell membrane preparation (Receptor Biology, Inc) was adjusted at the protein concentration of 8.5 μg/ml using a Tris-buffer solution [50 mM Tris-HCl (pH 7.8), 5 mM MgCl2, 1 mM EGTA, 0.1% BSA]. The solution incubated with [^3H]-diprenorphine (diluted at the final concentration of 0.13 nM using Tris-buffer) and a test compound at 25° C. for 90 minutes. The membrane was recovered using a cell harvester onto a GF/B filter which had previously been treated with 0.3% PEI, and then washed further 4 times with a washing solution [50 mM Tris-HCl (pH 7.8), 4° C.]. The filter was transferred into a counting vial. Adequate amount of scintillator was added and the radioactivity was measured using a liquid scintillation counter. A non-specific binding was regarded as a binding of [^3H]-diprenorphine in the presence of 100 μM naloxone, and a specific binding was regarded as the difference between the total binding and the non-specific binding. Based on the % binding inhibition in the presence of the test compound, an IC50 value was determined, and used together with the Kd value of [^3H]-diprenorphine for calculating the Ki value of the test compound.

[4] = 0~10 min after formalin treatment (phase 1)
[5] = 10~30 min after formalin treatment (phase 2)

| SMILES | Ki [2] [µM] | Ki [3] [µM] | Duration of the abersive response [1, 4] | Duration of the abersive response [1, 5] |
| --- | --- | --- | --- | --- |
| Cc1ccc2nc(C=Cc3cccc(C)n3)nc(NC3CCC(N)CC3C)c2c1.Cl.Cl.Cl (stereo not drawn) [Example 52, cis-4-amino-cis-2-methyl-N-{6-methyl-2-[2-(6-methyl-2-pyridyl)ethenyl]quinazolin-4-yl}cyclohexylamine Trihydrochloride] | – | – | 79.4** sec | 77.0** sec |
| Cc1ccc2nc(C=Cc3ccccn3)nc(N[C@@H]3CC[C@H](N)C[C@@H]3C)c2c1 [Example 57, (1R, 2S, 4S)-4-amino-2-methyl-N-{6-methyl-2-[2-(2-pyridyl)ethenyl]quinazolin-4-yl}cyclohexylamine Trihydrochloride] | 0.042 | 0.284 | – | – |
| Cc1ccc2nc(C=Cc3ccccn3)nc(N[C@H]3CC[C@@H](N)CC3)c2c1.Cl.Cl.Cl [Example 40, cis-4-{6-methyl-2-[2-(2-pyridyl)ethenyl]quinazolin-4-yl}aminocyclohexylamine Trihydrochloride] | 0.018 | 0.288 | 64.5** sec | 77.6* sec |
| COc1ccc2nc(C=Cc3ccc(Cl)cc3)nc(N[C@H]3CCCC[C@H]3N)c2c1 (relative stereo) [Example 25, cis-2-[2-(4-chlorostyryl)-6-methoxyquinazolin-4-yl]aminocyclohexylamine dihydrochloride] | 0.11 | 0.204 | – | – |
| Cc1ccc2nc(C=Cc3ccc(Cl)cc3)nc(N[C@H]3CC[C@@H](N)CC3)c2c1 [Example 22, cis-4-[2-(4-chlorostyryl)-6-methylquinazolin-4-yl]aminocyclohexylamine dihydrochloride] | 0.029 | 0.313 | – | – |
| COc1ccc2nc(C=Cc3ccccn3)nc(N[C@H]3CC[C@@H](N)CC3)c2c1 [Example 44, cis-4-{6-methoxy-2-[2-(2-pyridyl)ethenyl]quinazolin-4-yl}aminocyclohexylamine Trihydrochloride] | 0.023 | 0.492 | – | – |

Further lines, with some results ahead:

| Ki [2] [µM] | Ki [3] [µM] | SMILES | Duration of the abersive response [1, 4] | Duration of the abersive response [1, 5] |
| --- | --- | --- | --- | --- |
| 0.004 | 0.207 | Cc1ccc2nc(C=Cc3ccccn3)nc(N[C@@H]3CC[C@H](N)C[C@@H]3C)c2c1 (relative stereo) [Example 1, cis-4-amino-cis-2-methyl-N-{6-methyl-2-[2-(2-pyridyl)ethenyl]quinazolin-4-yl}cyclohexylamine Trihydrochloride] | 47.5** sec | 74.5* sec |
| 0.006 | 0.206 | COc1ccc2nc(C=Cc3ccccn3)nc(N[C@@H]3CC[C@H](N)C[C@@H]3C)c2c1 (relative stereo) [Example 51, cis-4-amino-cis-2-methyl-N-{6-methoxy-2-[2-(2-pyridyl)ethenyl]quinazolin-4-yl}cyclohexylamine Trihydrochloride] | – | – |
| 0.002 | 0.234 | Cc1ccc2nc(C=Cc3ccccn3)nc(N[C@H]3CC[C@@H](N)C[C@H]3C)c2c1 [Example 58, (1S, 2R, 4R)-4-amino-2-methyl-N-{6-methyl-2-[2-(2-pyridyl)ethenyl]quinazolin-4-yl}cyclohexylamine Trihydrochloride] | – | – |
